According to ChEMBL document CHEMBL1121775, “Synthesis and antimalarial effects of N2-aryl-N4-[(dialkylamino)alkyl]- and N4-aryl-N2-[(dialkylamino)alkyl]-2,4-quinazolinediamines” (J Med Chem, 1981):
Where “and” joins values, the source holds several entries; their conditions need not be identical. Equal entries are not always repeated.

How the values were obtained:
Plasmodium berghei [1] = experiment: Antimalarial effect against trophozoite-induced Plasmodium berghei in mice (Mus musculus) after 40 mg/kg subcutaneous dose; type: functional
Plasmodium berghei [2] = experiment: Antimalarial activity against trophozoite-induced Plasmodium berghei in mice (Mus musculus) at 160 mg/kg subcutaneous dose; type: functional
Mus musculus [3] = experiment: Number of toxic deaths at a dose of 160 mg/kg; type: functional
Mus musculus [4] = experiment: Number of toxic deaths at a dose of 640 mg/kg; type: toxicity, organism-based; parameters: dose 640 mg/kg; details: in vivo
Plasmodium berghei [5] = experiment: Antimalarial effect against trophozoite-induced Plasmodium berghei in mice (Mus musculus) after 20 mg/kg subcutaneous dose; type: functional
Plasmodium berghei [6] = experiment: Antimalarial effect against trophozoite-induced Plasmodium berghei in mice (Mus musculus) at 160 mg/kg subcutaneous dose; type: functional
Plasmodium berghei [7] = experiment: Antimalarial activity against trophozoite-induced Plasmodium berghei in mice (Mus musculus); type: functional
[8] = The ratio of SD90 of the quinine hydrochloride, to the SD90 of the test substance for the Dose of 46 mg/kg; type: functional
Plasmodium berghei [9] = experiment: Antimalarial effect against trophozoite-induced Plasmodium berghei in mice (Mus musculus) at 320 mg/kg subcutaneous dose; type: functional
Plasmodium berghei [10] = experiment: (§1) Antimalarial effect against trophozoite-induced Plasmodium berghei in mice (Mus musculus) at 640 mg/kg subcutaneous dose; type: functional
Plasmodium berghei [11] = experiment: Antimalarial effect against trophozoite-induced Plasmodium berghei in mice (Mus musculus) at 80 mg/kg subcutaneous dose; type: functional
[12] = The ratio of SD90 of the quinine hydrochloride, to the SD90 of the test substance for the Dose of 70 mg/kg; type: functional
Plasmodium berghei [13] = experiment: as §1; type: functional; remark: listed apart in the source
Mus musculus [14] = experiment: Number of mice cured at a subcutaneous dose of 640 mg/kg.; type: functional
[15] = The ratio of SD90 of the quinine hydrochloride, to the SD90 of the test substance for the Dose of 2.2 mg/kg; type: functional
[16] = The ratio of SD90 of the quinine hydrochloride, to the SD90 of the test substance for the Dose of >34 mg/kg; type: functional
[17] = The ratio of SD90 of the quinine hydrochloride, to the SD90 of the test substance for the Dose of 97 mg/kg/day; type: functional
Mus musculus [18] = experiment: Number of mice cured at a subcutaneous dose of 160 mg/kg.; type: functional
Mus musculus [19] = experiment: Number of mice cured at a dose of 640 mg/kg sc; type: functional; details: route subcutaneous
Mus musculus [20] = experiment: Antimalarial effect against trophozoite-induced Plasmodium berghei in mice (Mus musculus) at dosage of 320 mg/kg after subcutaneous administration; No. of mice (Mus musculus) surviving after 60 days 4; type: functional
Mus musculus [21] = experiment: Antimalarial effect against trophozoite-induced Plasmodium berghei in mice (Mus musculus) at dosage of 160 mg/kg after subcutaneous administration; No. of mice (Mus musculus) surviving after 60 days 3; type: functional
[22] = The ratio of SD90 of the quinine hydrochloride, to the SD90 of the test substance for the Dose of 8.5 mg/kg; type: functional
Mus musculus [23] = experiment: Antimalarial effect against trophozoite-induced Plasmodium berghei in mice (Mus musculus) at dosage of 640 mg/kg after subcutaneous administration; No. of mice (Mus musculus) surviving after 60 days 4; type: functional
Mus musculus [24] = experiment: Antimalarial effect against trophozoite induced Plasmodium berghei in mice (Mus musculus) at dosage of 160 mg/kg after subcutaneous administration; No. of mice (Mus musculus) surviving after 60 days 1; type: functional
Mus musculus [25] = experiment: Antimalarial effect against trophozoite-induced Plasmodium berghei in mice (Mus musculus) at dosage of 320 mg/kg after subcutaneous administration; No. of mice (Mus musculus) surviving after 60 days 2; type: functional
Mus musculus [26] = experiment: Number of mice cured at a subcutaneous dose of 320 mg/kg.; type: functional
Mus musculus [27] = experiment: Antimalarial effect against trophozoite-induced Plasmodium berghei in mice (Mus musculus) at dosage of 320 mg/kg after subcutaneous administration;; type: functional
Mus musculus [28] = experiment: Number of mice cured at a dose 160 mg/kg sc; type: functional; details: route subcutaneous
Mus musculus [29] = experiment: No of toxic deaths at dose of 640 mg/kg; type: ADME, organism-based; parameters: dose 640 mg/kg; details: in vivo
[30] = The ratio of SD90 of the quinine hydrochloride, to the SD90 of the test substance for the Dose of 74.5 mg/kg; type: functional
[31] = The ratio of SD90 of the quinine hydrochloride, to the SD90 of the test substance for the Dose of 20 mg/kg; type: functional
[32] = The ratio of SD90 of the quinine hydrochloride, to the SD90 of the test substance for the Dose of 69 mg/kg; type: functional
Mus musculus [33] = experiment: Antimalarial effect against trophozoite induced Plasmodium berghei in mice (Mus musculus) at dosage of 640 mg/kg after subcutaneous administration; No. of mice (Mus musculus) surviving after 60 days 2; type: functional
Mus musculus [34] = experiment: Antimalarial effect against trophozoite induced Plasmodium berghei in mice (Mus musculus) at dosage of 160 mg/kg after subcutaneous administration.; type: functional
[35] = The ratio of SD90 of the quinine hydrochloride, to the SD90 of the test substance for the Dose of 68 mg/kg; type: functional
Mus musculus [36] = experiment: Number of mice cured at a dose of 320 mg/kg sc; type: functional; details: route subcutaneous
[37] = The ratio of SD90 of the quinine hydrochloride, to the SD90 of the test substance for the Dose of […] mg/kg; type: functional
Mus musculus [38] = experiment: Antimalarial effect against trophozoite-induced Plasmodium berghei in mice (Mus musculus) at dosage of 20 mg/kg after subcutaneous administration.; type: functional
[39] = The ratio of SD90 of the quinine hydrochloride, to the SD90 of the test substance for the Dose of 22 mg/kg; type: functional

| SMILES | MST (Plasmodium berghei [1]) [days] | MST (Plasmodium berghei [5]) [days] | MST (Plasmodium berghei [6]) [days] | SD90 (Plasmodium berghei [7]) [mg/kg/day] | MST (Plasmodium berghei [9]) [days] | MST (Plasmodium berghei [1]; 40 mg/kg) | MST (Plasmodium berghei [6]; 160 mg/kg) | MST (Plasmodium berghei [11]) [days] | further results |
| --- | --- | --- | --- | --- | --- | --- | --- | --- | --- |
| CCN(CC)CCNc1nc(NCc2ccc(Cl)c(Cl)c2)nc2ccccc12 | 0.7 |  |  |  |  |  |  |  | MST (Plasmodium berghei [2]): 0.9 days; No. of toxic deaths (Mus musculus [3]): 1; No. of toxic deaths (Mus musculus [4]): 5 |
| CCN1CCCC(Nc2nc(Nc3ccc(Cl)c(Cl)c3)nc3ccc(Cl)cc23)C1 (configuration not stated) | 0.1 | 0.1 | 0.3 | 46 |  |  |  |  | Ratio [8]: 1.6 |
| Clc1ccc(Nc2nc(NCCN3CCCC3)c3ccccc3n2)cc1Cl |  | 0.3 |  | 70 | 9.3 | 2.1 days and 2.3 days | 6.5 days and 7.1 days | 3.1 | MST (Plasmodium berghei [10]; 640 mg/kg): 15.9 days and 13.7 days; Ratio [12]: 1.1 |
| CCN1CCCC(Nc2nc(Nc3ccc(Cl)c(Cl)c3)nc3ccccc23)C1 (configuration not stated) |  | 0.4 |  | 2.2 | 13.8 | 0.6 days and 0.5 days | 6.2 days and 7.3 days | 1 | MST (Plasmodium berghei [13]; 640 mg/kg): 13.8 days and 24.2 days; No. of cured (Mus musculus [14]; 640 mg/kg): 3 and 2; Ratio [15]: 34 |
| CCOc1ccc(Nc2nc(NCCN(CC)CC)c3ccc(Cl)cc3n2)cc1CN1CCCC1 |  |  |  | >34 |  |  |  |  | Ratio [16]: <2.2 |
| Clc1cccc(Nc2nc(NCCN3CCCC3)c3ccccc3n2)c1 |  | 0.4 |  | 97 | 4.2 | 0.6 days and 0.7 days | 2.8 days and 3.5 days | 1.4 | MST (Plasmodium berghei [10]; 640 mg/kg): 10.2 days and 11.1 days; Ratio [17]: 0.8 |
| CN(C)C1CCC(Nc2nc(Nc3ccc(Cl)c(Cl)c3)nc3ccccc23)CC1 (stereo in doubt; 23) |  |  |  | 8.5 |  | 9.7 days and 9.9 days |  |  | MST (Plasmodium berghei [5]; 20 mg/kg): 0.9 days; MST (Plasmodium berghei [2]; 160 mg/kg): 27.4 days; No. of survivals (Mus musculus [18]; 160 mg/kg): 3; No. of survivals (Mus musculus [19]): 5; MST (Mus musculus [20]): 25.9 days; MST (Mus musculus [21]): 25.4 days; Ratio [22]: 8.8 |
| CCN(CC)C1CCC(Nc2nc(Nc3ccc(Cl)c(Cl)c3)nc3ccc(Cl)cc23)CC1 (configuration not stated) |  | 1.3 |  |  |  | 13.3 days and 12.9 days |  | 14.9 | MST (Plasmodium berghei [13]): 18.4 days; MST (Mus musculus [23]): 12.9 days; MST (Plasmodium berghei [2]): 12.9 days; No. of survivals (Mus musculus [18]): 1; No. of survivals (Mus musculus [19]; 640 mg/kg): 4 and 3; MST (Mus musculus [24]): 13.9 days; MST (Mus musculus [25]): 27.2 days; No. of survivals (Mus musculus [26]): 2 |
| CCN(CC)C1CCC(Nc2nc(Nc3ccc(I)cc3)c3ccccc3n2)CC1 (configuration not stated) | 0.5 | 0.3 | 14.4 |  | 9.9 |  |  |  | MST (Mus musculus [27]): 9.4 days; MST (Plasmodium berghei [2]): 8.6 days; MST (Plasmodium berghei [11]; 80 mg/kg): 0.7 days and 0.5 days; No. of survivals (Mus musculus [28]): 2; No. of survivals (Mus musculus [19]; 640 mg/kg): 3 and 2; No. of survivals (Mus musculus [26]): 2 |
| CC1(C)N=C(N)N=C(N)N1c1ccc(Cl)cc1 [CYCLOGUANIL] | 13.4 |  |  |  |  |  |  |  | MST (Plasmodium berghei [5]; 20 mg/kg): 7.9 days and 8.1 days; No. of toxic deaths (Mus musculus [29]): 5; MST (Plasmodium berghei [11]; 80 mg/kg): 21.6 days and 21.9 days; No. of toxic deaths (Mus musculus [4]): 5 |
| C=C[C@H]1CN2CC[C@H]1C[C@H]2[C@H](O)c1ccnc2ccc(OC)cc12 [QUININE] | 1 | 0.2 | 2 | 74.5 | 3.2 |  |  | 1.4 | MST (Plasmodium berghei [10]): 5.4 days; Ratio [30]: 1 |
| CN1CCCC1CCNc1nc(Nc2cc(Cl)cc(Cl)c2)nc2ccc(Cl)cc12 (configuration not stated) |  | 0.6 |  | 20 | 21.1 | 3.6 days and 4 days |  | 5 | MST (Plasmodium berghei [2]; 160 mg/kg): 11.1 days and 10.3 days; No. of survivals (Mus musculus [18]): 1; No. of survivals (Mus musculus [19]): 5; Ratio [31]: 3.8; No. of survivals (Mus musculus [26]): 1 |
| CCN(CC)CCNc1nc(Nc2ccc(Cl)c(Cl)c2)nc2ccc(NCc3ccc(Cl)c(Cl)c3)cc12 |  | 0.2 | 3.8 | 69 | 5.6 | 0.2 days and 0.4 days |  | 0.4 | Ratio [32]: 1.1 |
| Clc1ccc(Nc2nc(NCCN3CCCC3)c3ccccc3n2)cc1 |  | 0.1 | 6.7 | 68 | 18.2 | 0.7 days and 1.1 days |  | 1.1 | MST (Plasmodium berghei [13]): 25.4 days; MST (Mus musculus [33]): 24.6 days; MST (Mus musculus [34]): 6.1 days; No. of cured (Mus musculus [14]; 640 mg/kg): 3 and 1; Ratio [35]: 1.1 |
| CCN(CC)C1CCC(Nc2nc(Nc3cc(Br)cc(Br)c3)nc3ccccc23)CC1 (configuration not stated) |  | 0.3 |  | 3.3 | 26.2 | 1.1 days and 0.7 days | 8.7 days and 9.1 days | 4.3 | No. of cured (Mus musculus [36]): 2; No. of cured (Mus musculus [14]): 5; Ratio [37]: 2.3 |
| FC(F)(F)c1ccc(Nc2nc(NCCCN3CCCC3)c3cc(Cl)ccc3n2)cc1 | 0.4 | 0.2 |  | 22 | 14.6 |  | 4.6 days and 4 days | 1.6 | MST (Plasmodium berghei [13]; 640 mg/kg): 26.5 days and 23.3 days; No. of survivals (Mus musculus [19]; 640 mg/kg): 2 and 3; MST (Mus musculus [38]): 0.4 days; No. of survivals (Mus musculus [26]): 1; Ratio [39]: 3.4 |
